According to ChEMBL document CHEMBL1150848, “Radiosumin B, an unusual dipeptide from the cyanobacterium Microcystis aeruginosa” (J Nat Prod, 2001):
The source made the active and inactive calls. The calls are words filed in the database; no cut-off is given here.

Tests used:
[1] = biological target: Plasminogen (Homo sapiens) (UniProt P00747); assay: Inhibition of plasmin
[2] = Inhibition of trypsin

Sequence of Plasminogen (Homo sapiens) (P00747 97-580 limits assumed): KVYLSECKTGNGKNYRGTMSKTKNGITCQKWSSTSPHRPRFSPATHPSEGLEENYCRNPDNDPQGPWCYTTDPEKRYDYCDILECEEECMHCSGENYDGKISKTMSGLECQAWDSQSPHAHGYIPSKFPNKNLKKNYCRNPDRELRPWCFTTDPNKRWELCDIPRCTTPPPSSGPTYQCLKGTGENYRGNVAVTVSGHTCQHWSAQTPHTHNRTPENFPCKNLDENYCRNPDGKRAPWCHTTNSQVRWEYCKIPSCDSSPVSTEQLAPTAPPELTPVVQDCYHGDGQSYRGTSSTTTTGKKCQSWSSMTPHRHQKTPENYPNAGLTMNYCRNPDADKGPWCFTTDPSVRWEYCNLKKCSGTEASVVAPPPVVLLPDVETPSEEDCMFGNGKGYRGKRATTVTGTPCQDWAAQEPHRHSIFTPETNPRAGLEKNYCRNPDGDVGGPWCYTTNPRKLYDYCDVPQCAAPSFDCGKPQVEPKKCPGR
Sequence of Plasminogen (Homo sapiens) (P00747 581-810 limits assumed): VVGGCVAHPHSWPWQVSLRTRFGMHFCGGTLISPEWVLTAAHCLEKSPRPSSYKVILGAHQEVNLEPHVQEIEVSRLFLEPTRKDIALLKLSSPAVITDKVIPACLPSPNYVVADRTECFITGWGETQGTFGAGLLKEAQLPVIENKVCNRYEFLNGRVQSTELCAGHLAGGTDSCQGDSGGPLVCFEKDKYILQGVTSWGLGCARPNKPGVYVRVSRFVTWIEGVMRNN

## CN[C@H]1C=C/C(=C/[C@H](NC(C)=O)C(=O)N[C@@H](/C=C2/C=C[C@H](NC(C)=O)CC2)C(=O)O)CC1
[1]
  Activity: Active
[2]
  Activity: Active
